In ChEMBL document CHEMBL5385878, “Synthesis and structure-activity optimization of 7-azaindoles containing aza-β-amino acids targeting the influenza PB2 subunit” (Eur J Med Chem, 2023):
Activity calls are given as the source filed them. The rule behind the calls is not given here.

Assays:
[1] = Selectivity index, ratio of CC50 for human A549 cells to EC50 for antiviral activity against Influenza A virus A/WSN/33(H1N1) infected in A549 cells; assay type: toxicity, cell-based; conditions: read-out: Ratio CC50/EC50
[2] = target: Polymerase basic protein 2 (Influenza A virus (strain A/Puerto Rico/8/1934 H1N1)) (UniProt P03428); assay: Inhibition of influenza A virus polymerase PB2 expressed in HEK293T cells cotransfected with PGK-renilla-luciferase at 10 uM pretreated with cells for 2 hrs followed by enzyme addition and measured after 24 hrs by dual-Glo luciferase assay relative to control; assay type: cell-based; conditions: time 26.0 hrs
[3] = target: T1, Polymerase basic protein 2 (Influenza A virus (strain A/Puerto Rico/8/1934 H1N1), UniProt P03428); assay: Inhibition of influenza A virus polymerase PB2 expressed in HEK293T cells cotransfected with PGK-renilla-luciferase pretreated with cells for 2 hrs followed by enzyme addition and measured after 24 hrs by dual-Glo luciferase assay; assay type: cell-based
[4] = Cytotoxicity against human A549 cells assessed as reduction in cell viability incubated for 96 hrs by CCK-8 method; assay type: toxicity, cell-based
[5] = target: T1, Polymerase basic protein 2; assay: Binding affinity to recombinant Influenza A virus polymerase PB2 cap-binding domain (318 to 413 residues) assessed as dissociation constant by ITC method
Influenza A virus [6] = assay: Antiviral activity against Influenza A virus A/WSN/33(H1N1) infected in A549 cells assessed as reduction in cell cytopathic effect incubated with cells for 2 hrs prior to viral infection followed by MDCK cells addition at 24 hrs pi and measured after 72 hrs by Reed-Muench method; assay type: functional, organism-based
[7] = target: Polymerase basic protein 2 (Influenza A virus (strain A/Puerto Rico/8/1934 H1N1)) (UniProt P03428); assay: Inhibition of influenza A virus polymerase PB2 expressed in HEK293T cells cotransfected with PGK-renilla-luciferase assessed as remaining activity at 10 uM pretreated with cells for 2 hrs followed by enzyme addition and measured after 24 hrs by dual-Glo luciferase assay relative to control; assay type: cell-based; conditions: time 26.0 hrs
Influenza A virus [8] = assay: Antiviral activity against Influenza A virus A/WSN/33(H1N1) infected in BALB/c mouse assessed as log reduction in lung viral titer at 12 mg/kg, po BID administered starting from 2 hrs before infection and measured on day 3 (reference value: 6.916 +/- 0.4736); assay type: functional; conditions: time 3 day
Influenza A virus [9] = assay: Antiviral activity against Influenza A virus A/WSN/33(H1N1) infected in BALB/c mouse assessed as log10 reduction in viral titer at 12 mg/kg, po BID administered starting from 2 hrs before infection and measured on day 3; assay type: functional; conditions: time 3 day
[10] = target: Polymerase basic protein 2 (Influenza A virus (strain A/Puerto Rico/8/1934 H1N1)) (UniProt P03428); assay: Potency index, ratio of m7GTP Kd to test compound Kd for recombinant Influenza A virus polymerase PB2 cap-binding domain (318 to 413 residues)
Influenza A virus [11] = assay: Antiviral activity against Influenza A virus A/WSN/33(H1N1) infected in BALB/c mouse assessed as recovery of AST level at 12 mg/kg, po BID administered starting from 2 hrs before infection and measured on day 3; assay type: functional, organism-based; conditions: time 3.0 day
Influenza A virus [12] = assay: Antiviral activity against wild type Influenza A/WSN/33 at 0.3 uM; assay type: functional, organism-based
[13] = Stability in mouse plasma assessed as half life; assay type: ADME, cell-free
Influenza A virus [14] = assay: Antiviral activity against Influenza A virus A/WSN/33(H1N1) infected in BALB/c mouse assessed as increase in survival ratio at 12.5 to 25 mg/kg, po BID administered starting from 2 days post-infection to 9 days and measured for 15 days; assay type: functional; conditions: dose 12.5-25 mg/kg, time 15 day
[15] = Toxicity in BALB/c mouse infected with Influenza A virus A/WSN/33(H1N1) assessed as body weight loss at 12 mg/kg, po BID administered starting from 2 hrs before infection and measured on day 3; assay type: organism-based; conditions: in vivo, 72 h, time 3 day
[16] = Toxicity in BALB/c mouse assessed as change in AST level at 40 mg/kg, po administered for 3 days; assay type: organism-based; conditions: in vivo, 72 h, time 3 day
[17] = Toxicity in BALB/c mouse assessed as change in body weight at 40 mg/kg, po administered for 3 days; assay type: organism-based; conditions: in vivo, 72 h, time 3 day
[18] = target: Voltage-gated inwardly rectifying potassium channel KCNH2 (Homo sapiens, UniProt Q12809); assay: Inhibition of hERG by manual patch clamp method; assay type: toxicity
[19] = Toxicity in BALB/c mouse assessed as change in ALT level at 40 mg/kg, po administered for 3 days; assay type: organism-based; conditions: in vivo, 72 h, time 3 day
[20] = Toxicity in BALB/c mouse assessed as animal death at 40 mg/kg, po administered once daily for 3 days; assay type: organism-based; conditions: in vivo, 72 h, time 3 day
[21] = Toxicity in BALB/c mouse assessed as change in Cr level at 40 mg/kg, po administered for 3 days; assay type: organism-based; conditions: in vivo, 72 h, time 3 day
Influenza A virus [22] = assay: Antiviral activity against Influenza A virus A/WSN/33(H1N1) infected in BALB/c mouse assessed as recovery of ALT level at 12 mg/kg, po BID administered starting from 2 hrs before infection and measured on day 3; assay type: functional, organism-based; conditions: time 3.0 day
[23] = Toxicity in BALB/c mouse infected with Influenza A virus A/WSN/33(H1N1) assessed as body weight loss at 12.5 to 25 mg/kg, po BID administered starting from 2 days post-infection to 9 days and measured for 15 days; assay type: organism-based; conditions: in vivo, 360 h, dose 12.5-25 mg/kg, time 15 day
[24] = Toxicity in BALB/c mouse assessed as poisoning symptom at 40 mg/kg, po administered once daily for 3 days; assay type: organism-based; conditions: in vivo, 72 h, time 3 day

T1 sequence (P03428 whole entry): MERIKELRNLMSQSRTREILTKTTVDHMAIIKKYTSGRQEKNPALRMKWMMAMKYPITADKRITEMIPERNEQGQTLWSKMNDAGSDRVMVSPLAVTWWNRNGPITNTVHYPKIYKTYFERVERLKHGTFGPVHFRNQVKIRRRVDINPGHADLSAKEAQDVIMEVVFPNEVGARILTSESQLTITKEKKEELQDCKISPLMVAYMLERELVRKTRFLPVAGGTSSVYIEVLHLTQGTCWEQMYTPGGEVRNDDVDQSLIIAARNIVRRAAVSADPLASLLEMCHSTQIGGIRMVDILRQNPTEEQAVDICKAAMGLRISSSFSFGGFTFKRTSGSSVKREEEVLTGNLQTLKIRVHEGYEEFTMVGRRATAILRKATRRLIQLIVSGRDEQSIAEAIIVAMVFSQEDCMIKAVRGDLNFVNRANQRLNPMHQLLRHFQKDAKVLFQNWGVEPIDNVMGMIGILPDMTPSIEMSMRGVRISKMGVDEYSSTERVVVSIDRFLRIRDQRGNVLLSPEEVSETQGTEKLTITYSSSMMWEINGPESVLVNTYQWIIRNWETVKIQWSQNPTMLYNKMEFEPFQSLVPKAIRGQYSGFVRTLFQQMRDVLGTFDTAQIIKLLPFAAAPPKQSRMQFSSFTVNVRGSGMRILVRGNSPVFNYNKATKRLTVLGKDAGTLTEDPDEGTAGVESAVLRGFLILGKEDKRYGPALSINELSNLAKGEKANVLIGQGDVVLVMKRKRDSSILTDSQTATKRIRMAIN
Chain of Polymerase basic protein 2 (Influenza A virus (strain A/Puerto Rico/8/1934 H1N1)) (P03428 whole entry, looked up, the tested form may be a part): as the sequence (P03428 whole entry) above
Chain of Voltage-gated inwardly rectifying potassium channel KCNH2 (Q12809 whole entry): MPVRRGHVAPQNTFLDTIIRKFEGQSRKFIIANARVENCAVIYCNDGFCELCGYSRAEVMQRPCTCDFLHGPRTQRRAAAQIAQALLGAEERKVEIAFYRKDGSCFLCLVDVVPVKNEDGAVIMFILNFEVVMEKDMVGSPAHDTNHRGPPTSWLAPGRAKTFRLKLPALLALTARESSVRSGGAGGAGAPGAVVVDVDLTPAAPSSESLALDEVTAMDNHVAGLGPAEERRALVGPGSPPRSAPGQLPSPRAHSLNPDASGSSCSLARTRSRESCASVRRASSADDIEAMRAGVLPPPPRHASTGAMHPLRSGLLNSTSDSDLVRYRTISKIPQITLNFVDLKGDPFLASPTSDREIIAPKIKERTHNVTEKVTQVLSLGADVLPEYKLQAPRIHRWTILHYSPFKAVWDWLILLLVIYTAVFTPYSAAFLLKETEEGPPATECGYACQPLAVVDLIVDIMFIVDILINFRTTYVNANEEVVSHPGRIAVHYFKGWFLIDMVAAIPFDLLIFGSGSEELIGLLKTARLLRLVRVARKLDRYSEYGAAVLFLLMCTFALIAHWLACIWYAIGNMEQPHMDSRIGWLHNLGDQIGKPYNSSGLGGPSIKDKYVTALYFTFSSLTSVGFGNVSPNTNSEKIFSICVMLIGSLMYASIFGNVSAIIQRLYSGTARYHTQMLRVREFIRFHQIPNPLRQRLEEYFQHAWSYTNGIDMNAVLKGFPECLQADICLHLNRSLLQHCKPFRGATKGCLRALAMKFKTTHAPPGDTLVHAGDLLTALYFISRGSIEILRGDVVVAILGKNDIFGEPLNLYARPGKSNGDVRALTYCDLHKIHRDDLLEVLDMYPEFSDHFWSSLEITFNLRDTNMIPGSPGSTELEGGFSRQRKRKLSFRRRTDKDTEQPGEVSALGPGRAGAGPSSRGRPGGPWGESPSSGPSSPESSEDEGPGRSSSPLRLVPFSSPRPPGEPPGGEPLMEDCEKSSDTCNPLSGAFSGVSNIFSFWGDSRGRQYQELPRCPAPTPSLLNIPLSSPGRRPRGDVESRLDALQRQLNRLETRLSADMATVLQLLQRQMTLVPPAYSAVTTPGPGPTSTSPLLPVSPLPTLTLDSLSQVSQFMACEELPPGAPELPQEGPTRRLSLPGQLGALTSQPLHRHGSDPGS

| SMILES | inhibition [2] | IC50 [3] | EC50 (Influenza A virus [6]) | Activity [7] | further results |
| --- | --- | --- | --- | --- | --- |
| O=C(O)[C@@H]1CC2(CC2)CN1Nc1nc(-c2c[nH]c3ncc(F)cc23)ncc1F | 79% | 3070 nM | 1450 nM | 21% | selectivity ratio [1]: 60; CC50 at 96 h [4]: 87000 nM; Kd [5]: 145 nM |
| CC(C1CC1)N(CC(=O)O)Nc1nc(-c2c[nH]c3ncc(F)cc23)ncc1F (stereo not given) | 59% | – | – | 41% | – |
| O=C(O)[C@H]1C2CCC(CC2)[C@@H]1Nc1nc(-c2c[nH]c3ncc(F)cc23)ncc1F [PIMODIVIR] | 99.9% | 4 nM | 1 nM | 0.1% | log(activity) (Influenza A virus [8]): 0.964; log(activity) (Influenza A virus [9]): 6 |
| O=C(O)[C@@H]1CCCN1Nc1nc(-c2c[nH]c3ncc(F)cc23)ncc1F | 38% | – | – | 62% | – |
| O=C(O)CN(Cc1ccccc1)Nc1nc(-c2c[nH]c3ncc(F)cc23)ncc1F | 0% | – | – | > 100% | – |
| CC(C)(C)N(CC(=O)O)Nc1nc(-c2c[nH]c3ncc(F)cc23)ncc1F | 99.7% | 60 nM | 30 nM | 0.3% | selectivity ratio [1]: > 2920; log(activity) (Influenza A virus [8]): 4.988; Ratio [10]: 3850; Activity (Influenza A virus [11]): Active; Activity (Influenza A virus [12]): Active; half-life [13]: 12 h; Activity (Influenza A virus [14]): 85.7%; log(activity) (Influenza A virus [9]): 2; Activity [15]: Non-Toxic; Activity [16]: Non-Toxic; Activity [17]: Non-Toxic; CC50 at 96 h [4]: > 100000 nM; Kd [5]: 46.2 nM; IC50 [18]: > 10000 nM; Activity [19]: Non-Toxic; Activity [20]: Non-Toxic; Activity [21]: Non-Toxic; Activity (Influenza A virus [22]): Active; Activity [23]: Non-Toxic; Activity [24]: Non-Toxic |
| O=C(O)CN(Nc1nc(-c2c[nH]c3ncccc23)ncc1F)C1CCCCC1 | 65% | – | – | 34% | – |
| CC(C)(C)CN(CC(=O)O)Nc1nc(-c2c[nH]c3ncccc23)ncc1F | 35% | – | – | 65% | – |
| CCOC(=O)C1=C[C@@H](OC(CC)CC)[C@H](NC(C)=O)[C@@H](N)C1 [OSELTAMIVIR] | – | – | 40 nM | – | – |
| O=C(O)[C@@H]1C[C@@H]2CCCC[C@@H]2N1Nc1nc(-c2c[nH]c3ncc(F)cc23)ncc1F | 99.9% | 360 nM | 50 nM | 0.1% | selectivity ratio [1]: 1024; CC50 at 96 h [4]: 54100 nM; Kd [5]: 202 nM |
| O=C(O)[C@@H]1Cc2ccccc2CN1Nc1nc(-c2c[nH]c3ncc(F)cc23)ncc1F | 38% | – | – | 62% | – |
| CC(C)(C)N(CC(=O)O)Nc1nc(-c2c[nH]c3ncccc23)ncc1F | 99.8% | 290 nM | 170 nM | 0.2% | selectivity ratio [1]: > 597; CC50 at 96 h [4]: > 100000 nM; Kd [5]: 468 nM |
| O=C(O)CN(Nc1nc(-c2c[nH]c3ncccc23)ncc1F)C1CCCC1 | 42% | – | – | 58% | – |
| O=C(O)CN(Nc1nc(-c2c[nH]c3ncccc23)ncc1F)C1CCC1 | 0% | – | – | > 100% | – |
| O=C(O)[C@@H]1CCCCN1Nc1nc(-c2c[nH]c3ncc(F)cc23)ncc1F | 88% | 1450 nM | 1150 nM | 12% | selectivity ratio [1]: > 87; CC50 at 96 h [4]: > 100000 nM |
| O=C(O)[C@@H]1Cc2ccccc2CN1Nc1nc(-c2c[nH]c3ncccc23)ncc1F | 27% | – | – | 73% | – |
| O=C(O)[C@@H]1CCCCN1Nc1nc(-c2c[nH]c3ncccc23)ncc1F | 33% | – | – | 67% | – |
| O=C(O)CN(Nc1nc(-c2c[nH]c3ncc(F)cc23)ncc1F)C1CCCC1 | 54% | – | – | 46% | – |
